What follows are compounds tested on BCAEC (assay: 3-(4,5-Dimethylthiazol-2-yl)-2,5-diphenyltetrazolium bromide (MTT) assay, mitochondrial function (MTT/Methylene Blue ratio)). Conditions: treated for 48 hours.
Type: cell-based, bovine
Description: 3-(4,5-Dimethylthiazol-2-yl)-2,5-diphenyltetrazolium bromide (MTT) assay
6,000 BCAEC were seeded into clear 96-well flat bottom plates at 100 μl per well. After starvation, cells were treated for 48 hours with the corresponding compounds. Compounds were changed every 12 and 24 hours (with 100 μl per well of fresh medium). Following the treatment medium was aspirated from plates, and washed once with 100 μl HBSS, subsequently 100 μl per well 0.5 mg/ml MTT in phenol red-free DMEM was added. Plates were incubated for 1 hour at 37° C., and this was followed by aspiration of MTT solution, addition of 100 μl per well DMSO to dissolve formazan crystals, and incubation at 37° C. for 15 minutes. Mitochondrial function was quantified by absorbance was measured at 540 nm with background substraction at 670 nm using. After MTT absorbance measure, media was removed and cells quantify in each well as described elsewhere (Oliver et al, 1989) with some modifications. In brief, 100 μl of 10% formol saline to each well was added, and incubated at 4° C. for 24 hours. Next, formol solution was removed from the wells and 100 μl of filtered 0.1% (w/v) Methylene Blue in 0.01 M borate buffer (pH 8.5) was added to each well. After 30 minutes, excess dye was removed and washed off 3 times with 0.01 M borate buffer (pH 8.5). […] The plates were then gently shaken and incubated for 15 minutes under a bench rocker. Absorbance was measured at 650 nm. The MTT/Methylene Blue ratio was used to quantify the mitochondrial function. Oliver M H, Harrison N K, Bishop J E, Cole P J, Lauren G J. A rapid and convenient assay for counting cells cultured in microwell plates: application for assessment of growth factors. J Cell Sci. 1989, 3:513-8.

| Compound | MTT Assay |
| --- | --- |
| CC1([C@H]2CC[C@H]3[C@@H]4CC=C5C[C@@H](O)CC[C@]5(C)[C@H]4[C@@H](O)C[C@]23C)OCCO1 [Compound 1001, (3S,8S,9S,10R,11S,13S,14S,17S)-10,13-dimethyl-17-(2-methyl-1,3-dioxolan-2-yl)-2,3,4,7,8,9,10,11,12,13,14,15,16,17-tetradecahydro-1H-cyclopenta[a]phenanthrene-3,11-diol] | + (+ indicates >110%) |
| CC(O)[C@H]1CC[C@H]2[C@@H]3CC=C4C[C@@H](O)CC[C@]4(C)[C@H]3[C@@H](O)C[C@]12C (stereo partly drawn) [Compound 1003, (3S,8S,9S,10R,11S,13S,14S,17S)-17-(1-hydroxyethyl)-10,13-dimethyl-2,3,4,7,8,9,10,11,12,13,14,15,16,17-tetradecahydro-1H-cyclopenta[a]phenanthrene-3,11-diol] | + (+ indicates >110%) |
| CC(=O)[C@H]1CC[C@H]2[C@@H]3CCC4=CC(=O)CC[C@]4(C)[C@H]3[C@@H](O)C[C@]12C [Compound 1007, (8S,9S,10R,11S,13S,14S,17S)-17-acetyl-11-hydroxy-10,13-dimethyl-6,7,8,9,10,11,12,13,14,15,16,17-dodecahydro-1H-cyclopenta[a]phenanthren-3(2H)-one] | + (+ indicates >110%) |
